Assay results: patent US12031137B2, “Compositions comprising SASP modulators and senescence attenuators and uses thereof for modulating cellular senescence” (RSEM, LIMITED PARTNERSHIP, priority 2016, dated 2024)

Legend:
[1] = biological target: T1, IRE1α's endoribonuclease activity (Mus musculus, UniProt Q9EQY0); test: SEMA3A-driven senescence in J774 cells with IRE1α RNase inhibitor; type: cell-based
T1 construct: endogenous in cells; host or cells: J774 (J774A.1) mouse macrophage-like cells
Experimental: FIG. 7C: Representative confocal immunofluorescence staining of γH2AX and DAPI of J774 macrophages stimulated with SEMA3A (100 ng/mL) or vehicle for 7 days (Scale bars are 100 μm). Higher magnification views of the outlined areas are shown (Scale bars are 50 μm). Immunoblots (FIG. 7D) for the XBP1(s) (spliced isoform) and PCR (FIG. 7E) for XBP1(s) and unspliced XBP1 (u) in J774 cell lysates treated with vehicle, S3A (100 ng/ml) and/or 4μ8c (1 ng/ml) at day 7 post-treatment. FIG. 7F: RT-qPCR for levels of Pai1, II6, II1β, Tgf-β1, Tp53, Ire1α and Tnfα in J774 stimulated with SEMA3A alone or with 4μ8c. β-actin was used as a reference gene. ***P<0.0001, *P<0.005. Scale bars: 100 μm for C & G. High mag C is 50 μm. Data are presented as mean±SEM;
To determine whether SEMA3A-driven senescence was occurring through IRE1α's kinase or RNAse activity, the selective cell-permeable coumarin o-hydroxyaldehyde pharmacological inhibitor of IRE1α's endoribonuclease activity, 4μ8c, was used. Exposure to 4μ8c (FIG. 7D) prevented SEMA3A-induced growth arrest and abrogated SEMA3A-induced senescence (data not shown). […] Ultimately, pharmacological inhibition of the endoribonuclease activity of IRE1α inhibited production of specific senescence-associated genes Vegf-a, Tgf-β1, II-1β, II-6, Pai-1, Tp53 while there is no effect on Tnf-α or IRE1α itself (FIG. 7F).
(§1) Semi-quantitative and Real-time PCR analysis. We isolated RNA using the GenElute™ Mammalian Total RNA Miniprep Kit (Sigma) and performed a digestion with DNase I to prevent amplification of genomic DNA. We reversed transcribed the RNA using M-MLV reverse transcriptase and analyzed gene expression using SybrGreen™ in an ABI Biosystems Real-Time PCR machine. β-actin was used as a reference gene. […] We investigated the splicing of XBP-1 by incubating the XBP-1 semi-quantitative PCR product with 0.4 U/μL of PstI enzyme for 5 hrs at 37° C. followed by separation on 2.5% agarose gel.
(§2) Western blotting. We enucleated eyes at varying time points and rapidly dissected and homogenized retinas for assessment of retinal protein levels. Protein concentration from retinal homogenate and cell lysates were assessed by BCA assay (Sigma), and then 30 μg of protein analyzed for each condition by standard SDS-PAGE technique.

[2] = tested on: SEMA3A-FC; test: Sema 3A binding assay on plate-coated purified traps (saturation curves, KD); conditions: for Binding to SEMA3A: Table 2, Yes/No
Experimental: (§3) Sema 3A and AP-VEGF165 binding assays. Saturation curves for the determinations of KD of binding to SEMA 3A or VEGF165 were obtained as follow. Wells of high protein binding 96 well plates (Maxisorp, Nunc) were coated with purified traps diluted in PBS and blocked afterward with binding buffer (PBS containing 2% casein and 0.05% Tween 20). The SEMA3A-FC (R&D systems) or AP-VEGF165 ligands were diluted in binding buffer over an extensive range of concentrations and added to wells. Following an overnight incubation, wells were washed with PBS containing 0.05% tween. Bound SEMA3a-FC was detected using an HRP-linked anti-Human IgG (Biorad) and ECL substrate (Pierce). Alternatively, bound AP-VEGF165 was detected using CPD star substrate (Roche). The Chemiluminescent signal was acquired on a TECAN reader. Dissociation constant (KD) were determined by non-linear curve fitting using the Graph Pad prism software.
(§4) The relative affinity of traps of the present invention to SEMA3A and VEGF has been assessed. Traps were prepared as described in Example 8.

[3] = biological target: T2, human VEGF165 (Homo sapiens, UniProt P15692); test: AP-VEGF165 binding assay on plate-coated purified traps (saturation curves, KD); conditions: AP-VEGF165 ligand; for Kd: read-out: VEGF165 binding (dissociation constant)
T2 construct: made in house; host or cells: HEK293T
T2 sequence (P15692 27-191 isoform P15692-4): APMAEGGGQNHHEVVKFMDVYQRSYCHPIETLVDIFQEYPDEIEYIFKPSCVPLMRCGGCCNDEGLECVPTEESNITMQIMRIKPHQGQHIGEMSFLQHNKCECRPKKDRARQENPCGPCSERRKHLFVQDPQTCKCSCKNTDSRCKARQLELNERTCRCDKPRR
Experimental: Production of AP-VEGF165. the coding sequence of the human VEGF165 variant 1 (NM_001025366) was sub-cloned in the pAPtag5 vector (GenHunter), in-frame with an Alkaline Phosphatase domain (AP-VEGF165). HEK293T cells were transfected with the AP-VEGF165 construct using a polyethylenimine (PEI) transfection method. Following the overnight transfection step, cells were cultured for an additional 60 hr in serum free media (In vitrogen). The cell media were collected and concentrated on a PES device (Pierce). The concentrated AP-VEGF165 ligand was analysed on PAGE-SDS and quantified using SimplyBlue safe stain (Life technologies).
as §3, §4

[4] = tested on: mouse model of oxygen-induced retinopathy (OIR); test: SA-β-gal staining of retinas in oxygen-induced retinopathy (OIR) after intravitreal injection; type: in vivo; conditions: single intravitreal injection at P12, vs vehicle
Text: (§5) O2-induced retinopathy. Mouse pups from different strains (C57Bl/6 WT, LyzM-Cre, LysM-Cre/IRE1^fl/fl, LysM-Cre/IRE1^+/+, IRE1^fl/fl and LysM-Cre/ROSA26EYFP^fl/fl), and their fostering mothers (CD1, Charles River) were exposed to 75% 02 from postnatal day 7 (P7) to day 12 and returned to room air. This model serves as a proxy to human ocular neovascular diseases such as ROP and diabetic retinopathy characterized by a late phase of destructive pathological angiogenesis (72, 73). Upon return to room air, hypoxia-driven neovascularization (NV) develops from P14 onwards (27). We enucleated eyes at different time points and dissected the retinas for mRNA, protein assays or flatmounting.
Senescence-associated β-galactosidase (SA-β-gal) assay. Senescence-associated β-galactosidase assays were carried out as described previously (57, 75)
Quantification of SA-β-gal in vivo. Senescence-associated β-galactosidase staining in flatmount retinas or sagittal eye sections were analyzed using Image J software as described in FIG. 14.
(§6) Intravitreal injections. P2, P10 or P12 C57BL/6 pups were anesthetized with 3.0% isoflurane and injected in the vitreous chamber with 0.5 μL of lentivirus (see “Lentivirus production”), recombinant SEMA3A (100 ng/μL), metformin (10 μg/μL) or Aflibercept (10 μg/uL) using a 10-μL Hamilton syringe fitted with a […] glass capillary tip. Approximately 254±11.0 ng/μL of lentivirus Sh_GFP and 323.3±15.3 ng/μL containing Sh_Sema3a, Lv.Cre (15.0 ng/mL), Lv.GFP (15.0 ng/mL) was injected. Virus titers were assessed with the p24 ELISA kit (ZeptoMetrix). The titers of the lentiviruses used were (in ng p24) LV.Sh_RNA IRE1α (8.52 ng/mL), and LV.Sh_RNA.GFP (8.47 ng/mL).

[5] = tested on: mouse model of oxygen-induced retinopathy (OIR); test: Avascular area and pre-retinal neovascularization in OIR flatmount retinas; type: in vivo
[6] = tested on: mouse model of oxygen-induced retinopathy (OIR); test: Immunoblot and RT-qPCR of OIR retinas after intravitreal injection; type: in vivo; conditions: intravitreal injection at P12, P14 OIR retinas
Text: as §5, §1, §6, §2

[7] = J774 stimulated with SEMA3A alone or with 4μ8c
[8] = intravitreal injection at P12 of OIR

T1 sequence (Q9EQY0 21-977): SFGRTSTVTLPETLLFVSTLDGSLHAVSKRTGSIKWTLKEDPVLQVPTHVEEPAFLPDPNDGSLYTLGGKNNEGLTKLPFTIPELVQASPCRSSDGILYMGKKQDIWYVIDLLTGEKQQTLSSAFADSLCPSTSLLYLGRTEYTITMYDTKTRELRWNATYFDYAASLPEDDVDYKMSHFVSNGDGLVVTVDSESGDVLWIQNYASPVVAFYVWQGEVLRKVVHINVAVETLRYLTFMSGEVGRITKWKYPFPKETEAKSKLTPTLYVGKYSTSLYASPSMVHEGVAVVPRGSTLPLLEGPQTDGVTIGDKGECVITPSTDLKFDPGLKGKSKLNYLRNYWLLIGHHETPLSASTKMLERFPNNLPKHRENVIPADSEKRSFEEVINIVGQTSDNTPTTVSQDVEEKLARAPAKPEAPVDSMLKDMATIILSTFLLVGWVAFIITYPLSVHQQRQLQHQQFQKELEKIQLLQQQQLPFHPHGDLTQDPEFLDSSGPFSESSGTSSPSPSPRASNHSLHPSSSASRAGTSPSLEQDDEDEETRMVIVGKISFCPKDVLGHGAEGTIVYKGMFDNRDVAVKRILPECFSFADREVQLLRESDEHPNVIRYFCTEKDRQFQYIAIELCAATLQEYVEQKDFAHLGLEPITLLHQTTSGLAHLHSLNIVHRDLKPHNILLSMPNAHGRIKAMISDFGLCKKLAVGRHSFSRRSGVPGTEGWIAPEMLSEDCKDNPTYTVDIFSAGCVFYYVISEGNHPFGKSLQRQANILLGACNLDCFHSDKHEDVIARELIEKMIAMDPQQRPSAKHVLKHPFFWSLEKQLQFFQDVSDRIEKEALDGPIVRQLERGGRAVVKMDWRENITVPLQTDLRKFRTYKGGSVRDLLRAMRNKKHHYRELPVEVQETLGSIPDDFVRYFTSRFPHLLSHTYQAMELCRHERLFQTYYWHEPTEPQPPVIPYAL

In the case of `Cc1cc(=O)oc2c(C=O)c(O)ccc12` [Trap 4μ8c], the “SEMA3A-mediated splicing and activation of XBP1” value ([1]; J774, S3A 100 ng/ml, 4μ8c 1 ng/ml, day 7) is reported as “prevented”, the SEMA3A-induced growth arrest ([1]; J774 cells, data not shown) is reported as “prevented” and the SEMA3A-induced senescence ([1]; J774 cells, data not shown) is reported as “abrogated”. The “Tnf-α or IRE1α expression (RT-qPCR)” value [1, 7] was “no effect” and the “production of senescence-associated genes Vegf-a, Tgf-β1, Il-1β, Il-6, Pai-1, Tp53 (RT-qPCR)” value [1, 7] was “inhibited”.

For “Trap G: NRP1 trap a1a2-b1b2-c, aa about 22-856; SEQ ID NOs 67/68”, the “Binding to SEMA3A” value [2] was “Yes”, the “preference for SEMA3A over VEGF binding” value ([2]; in words) was “much less important” and the Kd ([2]; traps coated on plate, overnight incubation, read-out: SEMA 3A-FC binding (dissociation constant)) was 0.8 nM. For the same molecule, the Kd [3] was 6.75 nM and the “SA-β-gal staining at P17 OIR (cellular senescence)” value (shortened to “SA-β-gal staining at P17 OIR”) [4] was “significant attenuation”.

In the case of “Aflibercept: recombinant fusion protein made-up of the extracellular domains of human VEGF receptors 1 and 2 and an Fc portion”, the “SA-β-gal staining at P14 OIR” value [4] is reported as “did not significantly influence”, the “SA-β-gal staining at P17 OIR” value [4] is reported as “did not significantly influence” and the “pathological neovascularization at P17 OIR” value ([5]; intravitreal injection at P12, vs vehicle) is reported as “marked decrease”. The “rates of vascular regeneration at P14” value [5, 8] was “does not modulate”, the “rates of vascular regeneration at P17” value [5, 8] was “does not modulate” and the “drivers of senescence (Cdkn2a, Tp53, Il1β, Tgf-β1, Sema3a RT-qPCR)” value [6] was “does not modulate”.

B1: Trap M: NRP1 trap a1a2-b1, aa about 22-424; SEQ ID NOs 81/82 (protein)
chain: FRNDKCGDTIKIESPGYLTSPGYPHSYHPSEKCEWLIQAPDPYQRIMINFNPHFDLEDRDCKYDYVEVFDGENENGHFRGKFCGKIAPPPVVSSGPFLFIKFVSDYETHGAGFSIRYELFKRGPECSQNYTTPSGVIKSPGFPEKYPNSLECTYIVFAPKMSEIILEFESFDLEPDSNPPGGMFCRYDRLEIWDGFPDVGPHIGRYCGQKTPGRIRSSSGILSMVFYTDSAIAKEGFSANYSVLQSSVSEDFKCMEALGMESGEIHSDQITASSQYSTNWSAERSRLNYPENGWTPGEDSYREWIQVDLGLLRFVTAVGTQGAISKETKKKYYVKTYKIDVSSNGEDWITIKEGNKPVLFQGNTNPTDVVVAVFPKPLITRFVRIKPATWETGISMRFEVYGCRSGSKENLYFQG
With B1 the “Binding to SEMA3A” value [2] was “Yes”, the “kd for SEMA3A relative to VEGF” value ([2]; see Table 6) was “about 20 ×” and the Kd [3] was 20.1 nM. The “SA-β-gal staining at P17 OIR” value [4] was “significant attenuation”.

B2: Trap AE: NRP1 trap a1a2b1b2, aa about 22-560, D320K; SEQ ID NOs 53/54 (protein)
chain: MERGLPLLCAVLALVLAPAGAFRNDKCGDTIKIESPGYLTSPGYPHSYHPSEKCEWLIQAPDPYQRIMINFNPHFDLEDRDCKYDYVEVFDGENENGHFRGKFCGKIAPPPVVSSGPFLFIKFVSDYETHGAGFSIRYELFKRGPECSQNYTTPSGVIKSPGFPEKYPNSLECTYIVFAPKMSEIILEFESFDLEPDSNPPGGMFCRYDRLEIWDGFPDVGPHIGRYCGQKTPGRIRSSSGILSMVFYTDSAIAKEGFSANYSVLQSSVSEDFKCMEALGMESGEIHSDQITASSQYSTNWSAERSRLNYPENGWTPGEKSYREWIQVDLGLLRFVTAVGTQGAISKETKKKYYVKTYKIDVSSNGEDWITIKEGNKPVLFQGNTNPTDVVVAVFPKPLITRFVRIKPATWETGISMRFEVYGCKITDYPCSGMLGMVSGLISDSQITSSNQGDRNWMPENIRLVTSRSGWALPPAPHSYINEWLQIDLGEEKIVRGIIIQGGKHRENKVFMRKFKIGYSNNGSDWKMIMDDSKRKAKSFEGNNNYDTPELRTFPALSTRFIRIYPERATHGGLGLRMELLGCRSGSKENLYFQG
In the case of B2, the “Binding to SEMA3A” value [2] is reported as “No”, the “SEMA 3A-FC binding (dissociation constant)” value ([2]; traps coated on plate, overnight incubation) is reported as “No binding” and the “VEGF165 binding (dissociation constant)” value [3] is reported as “No binding”.
